Here are results for 1 molecule from article PMC9823088, “The oral selective estrogen receptor degrader GDC-0810 (ARN-810) in postmenopausal women with hormone receptor-positive HER2-negative (HR + /HER2 −) advanced/metastatic breast cancer” (Breast Cancer Research and Treatment, 2022).

The test system of one data set is ER. Briefly: [18F]-fluoroestradiol PET (FES-PET) pharmacodynamic response. The data set is classed as in vivo, human. The method, then:
Blood samples were collected for pharmacokinetic assessments. Tumor assessments were performed at screening and every 8 weeks from cycle 1, day 1 (C1D1). Radiographic assessment of objective tumor response or disease progression was based on Response Evaluation Criteria in Solid Tumors (RECIST v1.1). Transvaginal ultrasound scans were performed to monitor endometrial thickness at screening, at every 6 months from C1D1, and at the end of treatment. Imaging with [^18F]-fluoroestradiol positron emission tomography (FES-PET) was performed to quantify ER expression in tumors and to assess for pharmacodynamic response. Further assessment details are provided in Supplementary Methods. […]
(§1) Tumor assessments were performed at screening and every 8 weeks from cycle-1, day-1 […]
Imaging with [18F]-fluoroestradiol positron emission tomography
(FES-PET) was performed to quantify ER expression in tumors and to assess for pharmacodynamic response. In phase Ia, FES-PET scans were acquired at screening and on C2D3 at 18-24 hours post the C2D2 dose. Scans were repeated during cycle 3 if the C2D3 scan […]
In phase IIa cohort A1 patients, FES-PET scans were acquired at screening and on C3D3 at 18-24 hours post the C3D2 dose. Scans were repeated at the time of progression if feasible. The mean percent change from baseline in SUVmax (corrected for background activity) for up to five index lesions was calculated for each patient; more details are presented in (1). Optional tumor biopsies were collected at baseline (screening)

The subject of the next data set is CYP2B6. The arrangement: method as in printed. Particulars: stated as reason for dose adjustments; ref not given; cited from earlier work.
The nature of data set [1]: Plasma pharmacokinetics of GDC-0810 and glucuronide metabolites. The data set is classed as in vivo, human. The method, then:
Blood samples were collected for pharmacokinetic assessments. Tumor assessments were performed at screening and every 8 weeks from cycle 1, day 1 (C1D1). Radiographic assessment of objective tumor response or disease progression was based on Response Evaluation Criteria in Solid Tumors (RECIST v1.1). Transvaginal ultrasound scans were performed to monitor endometrial thickness at screening, at every 6 months from C1D1, and at the end of treatment. Imaging with [^18F]-fluoroestradiol positron emission tomography (FES-PET) was performed to quantify ER expression in tumors and to assess for pharmacodynamic response. Further assessment details are provided in Supplementary Methods.
CYP2B6 and CYP2C enzymes. […]
Blood samples were collected for pharmacokinetic assessment on lead-in day −7 and cycle 2 day 1 (C2D1) at predose (0 hour) and postdose (0.5, 1, 1.5, 2, 3, 4, 6, 8, and 24 hours), (plus at 48 hours postdose for day−7). Full plasma pharmacokinetic profiles were obtained for GDC-0810 and its glucuronide metabolites (acyl-glucuronide and N-glucuronide) using a validated liquid chromatography/ tandem mass spectrometry method, and analyzed using non-compartmental methods for all patients in the dose escalation cohorts.
as §1

Where only a bound is given, the exact number is not on record here.

With `CC/C(=C(/c1ccc(/C=C/C(=O)O)cc1)c1ccc2[nH]ncc2c1)c1ccc(F)cc1Cl` [GDC-0810], in the data set with ER (600 mg QD (fasting and non-fasting)), the “patients with complete or near-complete reduction in FES uptake” value is at least 80%. In addition, the “response rates by FES-PET” value in the data set on ER (600-mg QD, fasting, and non-fasting, including tumors harboring ESR1 mutations) is given as 80–100%. In addition, the “patients with complete or near complete (> 90%) suppression of FES uptake” value with ER (all patients who had FES-PET scans) is listed as 78%; in the data set on ER (patients with tumors harboring ESR1 mutations), 18 of 26; with ER (phase IIa dose expansion, baseline and C3D3 scans), 7 of 10; in the data set with ER (phase Ia, baseline and C2D3 scans), 24 of 30. Also, in the data set on ER (in vivo), the FES reduction is on record as over 90%. The “patients with a single lesion considered FES-avid (SUVmax corrected > 1.5)” value with ER (phase Ia dose escalation, C2D3) was “two”. For the same molecule, in the data set with CYP2B6, the “effects on CYP2B6” value was “inhibitory effects”. Also, the “average exposure at steady state (AUC0-24 h), non-fasted compared to fasted” value in data set [1] (600 mg QD) turned out to be 1.5 fold. The “average exposure at steady state (Cmax), non-fasted compared to fasted” value in data set [1] (600 mg QD) is recorded as “twofold”. Moreover, the drug accumulation result in data set [1] (following multiple dosing) is given as “Minimal drug accumulation”. Moreover, in data set [1] (human, plasma, oral, 600-mg QD, non-fasted condition, read-out: mean terminal half-life (converted)), the half-life was about 8 h. The Tmax in data set [1] (human, plasma, oral, after dosing, read-out: median Tmax) was in the range of 1 to 3 h. Besides, in data set [1] (up to 600 mg), the pharmacokinetic profile result is “linear and dose proportional”.
